Biological target: PD-1/PD-L1 protein/protein interaction (Homo sapiens (Human), UniProt Q9NZQ7)
Test: PD-1/PD-L1 Homogeneous Time-Resolved Fluorescence (HTRF) Binding Assay
Settings: recombinant human PD-L1 (19-238) His-tag and human PD-1 (25-167) Fc tag; PBS pH 7.4
Procedure: Example A. PD-1/PD-L1 Homogeneous Time-Resolved Fluorescence (HTRF) Binding Assay
The assays were conducted in a standard black 384-well polystyrene plate with a final volume of 20 μL. Inhibitors were first serially diluted in DMSO and then added to the plate wells before the addition of other reaction components. The final concentration of DMSO in the assay was 1%. The assays were carried out at […] in the PBS buffer (pH 7.4) with 0.05% Tween-20 and 0.1% BSA. Recombinant human PD-L1 protein (19-238) with a His-tag at the C-terminus was purchased from AcroBiosystems (PD1-H5229). Recombinant human PD-1 protein (25-167) with Fc tag at the C-terminus was also purchased from AcroBiosystems (PD1-H5257). PD-L1 and PD-1 proteins were diluted in the assay buffer and 10 μL was added to the plate well. Plates were centrifuged and proteins were preincubated with inhibitors for 40 minutes. The incubation was followed by the addition of 10 μL of HTRF detection buffer supplemented with Europium cryptate-labeled anti-human IgG (PerkinElmer-AD0212) specific for Fc and anti-His antibody conjugated to SureLight®-Allophycocyanin (APC, PerkinElmer-AD0059H). After centrifugation, the plate was incubated at 25° C. for 60 min. before reading on a PHERAstar FS plate reader (665 nm/620 nm ratio). Final concentrations in the assay were […] PD1, 10 nM PD-L1, 1 nM europium anti-human IgG and 20 nM anti-His-Allophycocyanin. IC50 determination was performed by fitting the curve of percent control activity versus the log of the inhibitor concentration using the GraphPad Prism 5.0 software.

PD-1/PD-L1 protein/protein interaction, sequence (Q9NZQ7 19-238): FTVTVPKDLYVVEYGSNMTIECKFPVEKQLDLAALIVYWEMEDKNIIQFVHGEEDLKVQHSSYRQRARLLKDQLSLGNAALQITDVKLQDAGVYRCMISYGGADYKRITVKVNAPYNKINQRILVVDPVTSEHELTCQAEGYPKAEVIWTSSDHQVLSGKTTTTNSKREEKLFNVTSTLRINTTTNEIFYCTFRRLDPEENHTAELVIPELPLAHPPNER

IC50 [nM]	Compound
≤ 10	Cc1c(Nc2nccc3cc(CNCCO)cnc23)cccc1-c1ccc2c(c1)OCCO2 [Example 17, 2-{[(8-{[3-(2,3-dihydro-1,4-benzodioxin-6-yl)-2-methylphenyl]amino}-1,7-naphthyridin-3-yl)methyl]amino}ethanol]
≤ 10	Cc1c(Nc2nccc3cc(CNCCO)cnc23)cccc1-c1ccccc1 [Example 2, 2-[({8-[(2-methylbiphenyl-3-yl)amino]-1,7-naphthyridin-3-yl}methyl)amino]ethanol]
10 to 100	Cc1c(Nc2ncnc3cc(CN4CCCCC4C(=O)O)cnc23)cccc1-c1ccccc1 (stereo not drawn) [Example 4, 1-({4-[(2-methylbiphenyl-3-yl)amino]pyrido[3,2-d]pyrimidin-7-yl}methyl)piperidine-2-carboxylic Acid]
10 to 100	Cc1c(Nc2nccc3c(CN4CCCCC4C(=O)O)ccnc23)cccc1-c1ccc2c(c1)OCCO2 (stereo not drawn) [Example 13, 1-[(8-{[3-(2,3-dihydro-1,4-benzodioxin-6-yl)-2-methylphenyl]amino}-1,7-naphthyridin-4-yl)methyl]piperidine-2-carboxylic Acid]
≤ 10	Cc1c(Nc2nccc3nc(CNCCO)cnc23)cccc1-c1ccccc1 [Example 14, 2-[({5-[(2-methylbiphenyl-3-yl)amino]pyrido[3,4-b]pyrazin-2-yl}methyl)amino]ethanol]
≤ 10	N#Cc1c(Nc2nccc3cc(CNCCO)cnc23)cccc1-c1ccccc1 [Example 19, 3-[(3-{[(2-hydroxyethyl)amino]methyl}-1,7-naphthyridin-8-yl)amino]biphenyl-2-carbonitrile]
≤ 10	COc1c(CNCCO)cnc2c(Nc3cccc(-c4ccccc4)c3C)nccc12 [Example 10, 2-[({4-methoxy-8-[(2-methylbiphenyl-3-yl)amino]-1,7-naphthyridin-3-yl}methyl)amino]ethanol]
10 to 100	Cc1c(Nc2cccc3c(CNCCO)ccnc23)cccc1-c1ccccc1 [Example 7, 2-[({8-[(2-methylbiphenyl-3-yl)amino]quinolin-4-yl}methyl)amino]ethanol]
≤ 10	N#Cc1c(Nc2nccc3cc(CNCCO)cnc23)cccc1C1=CCCCC1 [Example 20, 2-cyclohex-1-en-1-yl-6-[(3-{[(2-hydroxyethyl)amino]methyl}-1,7-naphthyridin-8-yl)amino]benzonitrile]
≤ 10	Cc1c(Nc2nccc3cc(CNCCO)cnc23)cccc1C1=CCCCC1 [Example 18, 2-[({8-[(3-cyclohex-1-en-1-yl-2-methylphenyl)amino]-1,7-naphthyridin-3-yl}methyl)amino]ethanol]
≤ 10	N#Cc1c(Nc2nccc3cc(CNCCO)cnc23)cccc1-c1ccc2c(c1)OCCO2 [Example 16, 2-(2,3-dihydro-1,4-benzodioxin-6-yl)-6-[(3-{[(2-hydroxyethyl)amino]methyl}-1,7-naphthyridin-8-yl)amino]benzonitrile]
≤ 10	Cc1c(Nc2nccc3c(CN4CCCCC4C(=O)O)ccnc23)cccc1-c1ccccc1 (stereo not drawn) [Example 5, 1-({8-[(2-methylbiphenyl-3-yl)amino]-1,7-naphthyridin-4-yl}methyl)piperidine-2-carboxylic Acid]
10 to 100	N#Cc1c(Nc2nccc3cc(CNCCO)cnc23)cccc1C1CCCCC1 [Example 21, 2-cyclohexyl-6-[(3-{[(2-hydroxyethyl)amino]methyl}-1,7-naphthyridin-8-yl)amino]benzonitrile]
10 to 100	Cc1c(Nc2nccc3c(CNCCO)ccnc23)cccc1-c1ccccc1 [Example 6, 2-[({8-[(2-methylbiphenyl-3-yl)amino]-1,7-naphthyridin-4-yl}methyl)amino]ethanol]
10 to 100	Cc1c(Nc2nccc3cc(CN4CCCCC4C(=O)O)cnc23)cccc1-c1ccccc1 (stereo not drawn) [Example 3, 1-({8-[(2-methylbiphenyl-3-yl)amino]-1,7-naphthyridin-3-yl}methyl)piperidine-2-carboxylic Acid]
10 to 100	Cc1c(Nc2nccc3nc(CN4CCCC[C@H]4C(=O)O)cnc23)cccc1-c1ccccc1 [Example 15, (2S)-1-({5-[(2-methylbiphenyl-3-yl)amino]pyrido[3,4-b]pyrazin-2-yl}methyl)piperidine-2-carboxylic Acid]
10 to 100	Cc1c(Nc2cccc3cc(CNCCO)cnc23)cccc1-c1ccccc1 [Example 1, 2-[({8-[(2-methylbiphenyl-3-yl)amino]quinolin-3-yl}methyl)amino]ethanol]
10 to 100	Cc1c(Nc2nccc3c(Cl)c(CNCCO)cnc23)cccc1-c1ccccc1 [Example 9, 2-[({4-chloro-8-[(2-methylbiphenyl-3-yl)amino]-1,7-naphthyridin-3-yl}methyl)amino]ethanol]
≤ 10	Cc1c(Nc2nccc3c(CNCCO)ccnc23)cccc1-c1ccc2c(c1)OCCO2 [Example 12, 2-{[(8-{[3-(2,3-dihydro-1,4-benzodioxin-6-yl)-2-methylphenyl]amino}-1,7-naphthyridin-4-yl)methyl]amino}ethanol]
10 to 100	Cc1c(Nc2nccc3c(Cl)c(CN4CCCCC4C(=O)O)cnc23)cccc1-c1ccccc1 (stereo not drawn) [Example 11, 1-({4-chloro-8-[(2-methylbiphenyl-3-yl)amino]-1,7-naphthyridin-3-yl}methyl)piperidine-2-carboxylic Acid]
10 to 100	Cc1c(Nc2cccc3c(CN4CCCCC4C(=O)O)ccnc23)cccc1-c1ccccc1 (stereo not drawn) [Example 8, 1-({8-[(2-methylbiphenyl-3-yl)amino]quinolin-4-yl}methyl)piperidine-2-carboxylic Acid]
